Reference: patent US10683278B2 (JINAN UNIVERSITY, priority 2015, dated 2020)

Tested on: 4T1 cells
Experiment: In vivo metastasis of 4T1 xenografts
Details: BALB/c mice, 4T1 subcutaneous, oral 30 and 90 mg/kg per day, 21 days
Protocol: BALB/c mice were selected and 4T1 cells (0.5×10^6/mouse) were inoculated subcutaneously on their right sides. Twenty-four days after inoculation, the mice were randomly divided into treatment and control groups (10 in each group). The mice in each group were orally administered for 21 days, and the drug dose in the treatment group was 30 mg/kg and 90 mg/kg of compound 2-lin per day, respectively. The mice were measured for body weight and tumor volume every two days. After the mice reached the end of administration, the liver tissues of mice were excised and collected, fixed with 10% formaldehyde solution, embedded in paraffin, sectioned, and stained with eosin. Microscopic examination of micrometastases in at least three fields of view was performed and the number of liver micrometastases was calculated.
The tumor volume is calculated by the formula of TV=W^2(L/2), wherein L is the length and W is the width.

In the case of `CCc1ccc2c(c1)c(=O)c(C(=O)Nc1ccc(Oc3ncnc4cc(OC)c(OC)cc34)c(F)c1)c(C)n2C` [TL4800191, N-(4-(6,7-dimethoxyquinazolin-4-yloxy)-3-fluorophenyl)-6-ethyl-1,2-dimethyl-4-oxo-1,4-dihydroquinoline-3-carboxamide], the “growth of in situ tumor” value is reported as “no obvious inhibitory effect” and the “number and size of liver metastasis” value is reported as “inhibit the number and size of liver metastasis in a dose-dependent manner”.
